Results as given in PMC11587536 (Biochemistry, 2024).

Molecular target: MoLOX (Pyricularia oryzae, UniProt G4NAP4)
Sequence (G4NAP4 17-619 limits assumed): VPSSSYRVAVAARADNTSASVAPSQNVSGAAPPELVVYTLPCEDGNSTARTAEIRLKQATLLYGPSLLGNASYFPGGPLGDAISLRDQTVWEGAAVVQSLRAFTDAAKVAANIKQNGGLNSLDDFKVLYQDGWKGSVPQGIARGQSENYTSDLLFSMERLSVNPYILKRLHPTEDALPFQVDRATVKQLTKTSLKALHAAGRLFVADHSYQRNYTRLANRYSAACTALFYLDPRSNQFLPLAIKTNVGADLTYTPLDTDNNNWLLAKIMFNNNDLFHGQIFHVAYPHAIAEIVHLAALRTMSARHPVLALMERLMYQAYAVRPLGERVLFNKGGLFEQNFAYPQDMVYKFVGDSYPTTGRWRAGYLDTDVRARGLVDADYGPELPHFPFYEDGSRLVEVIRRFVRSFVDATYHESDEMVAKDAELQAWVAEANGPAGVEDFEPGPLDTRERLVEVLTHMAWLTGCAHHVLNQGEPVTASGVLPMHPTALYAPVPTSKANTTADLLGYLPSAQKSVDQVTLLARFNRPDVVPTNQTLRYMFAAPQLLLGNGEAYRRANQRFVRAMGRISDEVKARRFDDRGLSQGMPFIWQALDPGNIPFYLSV

CC/C=C\C/C=C\C/C=C\CCCCCCCC(=O)O [αLA, alpha linolenic]
O2 electrode, steady-state kinetics: WT MoLOX reacts nearly twice as fast with αLA as with LA
